The source made the active and inactive calls. How the calls were made is not given here.
Tested on: CCRIS mutagenicity, Ames/micronucleus/aberration tests
Experiment: CCRIS mutagenicity studies
[1] = Test System: AMES SALMONELLA TYPHIMURIUM, Strain/Indicator: TA98, Metabolic Activation: NONE, Method: STANDARD PLATE
[2] = Test System: AMES SALMONELLA TYPHIMURIUM, Strain/Indicator: TA98, Metabolic Activation: RAT, LIVER, S-9, AROCLOR 1254, Method: STANDARD PLATE
[3] = Test System: AMES SALMONELLA TYPHIMURIUM, Strain/Indicator: TA100, Metabolic Activation: NONE, Method: STANDARD PLATE
[4] = Test System: AMES SALMONELLA TYPHIMURIUM, Strain/Indicator: TA100, Metabolic Activation: RAT, LIVER, S-9, AROCLOR 1254, Method: STANDARD PLATE
[5] = Test System: MOUSE LYMPHOMA, Strain/Indicator: L5178Y (TK+/TK-), Metabolic Activation: NONE, Method: SUSPENSION/PLATE

CCC(CCC(C)=O)COC(=O)c1ccccc1C(=O)O (centres undefined)
mutagenic call (Test System: AMES SALMONELLA TYPHIMURIUM, Strain/Indicator: TA97, Metabolic Activation: NONE, Method: STANDARD PLATE): inactive; negative | mutagenic call (Test System: AMES SALMONELLA TYPHIMURIUM, Strain/Indicator: TA97, Metabolic Activation: RAT, LIVER, S-9, AROCLOR 1254, Method: STANDARD PLATE): inactive; negative | mutagenic call (Test System: AMES SALMONELLA TYPHIMURIUM, Strain/Indicator: TA97, Metabolic Activation: RAT, LIVER, S-9, DI(2-ETHYLHEXYL)PHTHALATE, Method: STANDARD PLATE): inactive; negative | mutagenic call [1]: inactive; negative | mutagenic call [2]: inactive; negative | mutagenic call (Test System: AMES SALMONELLA TYPHIMURIUM, Strain/Indicator: TA98, Metabolic Activation: RAT, LIVER, S-9, DI(2-ETHYLHEXYL)PHTHALATE, Method: STANDARD PLATE): inactive; negative | mutagenic call [3]: inactive; negative | mutagenic call [4]: inactive; negative | mutagenic call (Test System: AMES SALMONELLA TYPHIMURIUM, Strain/Indicator: TA100, Metabolic Activation: RAT, LIVER, S-9, DI(2-ETHYLHEXYL)PHTHALATE, Method: STANDARD PLATE): inactive; negative | mutagenic call (Test System: AMES SALMONELLA TYPHIMURIUM, Strain/Indicator: TA102, Metabolic Activation: NONE, Method: STANDARD PLATE): inactive; negative | mutagenic call (Test System: AMES SALMONELLA TYPHIMURIUM, Strain/Indicator: TA102, Metabolic Activation: RAT, LIVER, S-9, AROCLOR 1254, Method: STANDARD PLATE): inactive; negative | mutagenic call (Test System: AMES SALMONELLA TYPHIMURIUM, Strain/Indicator: TA102, Metabolic Activation: RAT, LIVER, S-9, DI(2-ETHYLHEXYL)PHTHALATE, Method: STANDARD PLATE): inactive; negative

C=CCN(CC=C)c1cc(NC(C)=O)c(N=Nc2c(Br)cc([N+](=O)[O-])cc2[N+](=O)[O-])cc1OC
mutagenic call [1]: inactive; negative | mutagenic call [2]: active; positive | mutagenic call (Test System: AMES SALMONELLA TYPHIMURIUM, Strain/Indicator: YG1041, Metabolic Activation: NONE, Method: STANDARD PLATE): active; positive | mutagenic call (Test System: AMES SALMONELLA TYPHIMURIUM, Strain/Indicator: YG1041, Metabolic Activation: RAT, LIVER, S-9, AROCLOR 1254, Method: STANDARD PLATE): active; positive

Cc1cc(-c2ccc(N/N=C3\C=Cc4c(S(=O)(=O)O)cc(S(=O)(=O)O)c(N)c4C3=O)c(C)c2)ccc1N/N=C1\C=Cc2c(S(=O)(=O)O)cc(S(=O)(=O)O)c(N)c2C1=O
mutagenic call (Test System: AMES SALMONELLA TYPHIMURIUM, Strain/Indicator: TA98, Metabolic Activation: HAMSTER, LIVER, S-9, Method: PREINCUBATION (PRIVAL METHOD)): active; positive | mutagenic call (Test System: AMES SALMONELLA TYPHIMURIUM, Strain/Indicator: TA100, Metabolic Activation: HAMSTER, LIVER, S-9, Method: PREINCUBATION (PRIVAL METHOD)): active; positive | mutagenic call [5]: active; positive. reevaluation of results: equivocal | mutagenic call (Test System: Mouse lymphoma, Strain/Indicator: L5178Y (tk+/tk-), Metabolic Activation: Rat, Liver, S-9, Aroclor 1254, Method: Suspension/plate): inactive; negative

O=C(/C=C/c1ccccc1)c1ccc(Br)cc1
mutagenic call [1]: inactive; negative | mutagenic call [2]: inactive; negative | mutagenic call [3]: inactive; negative | mutagenic call [4]: inactive; negative

Cc1c(O)c(=O)ccn1C
mutagenic call [5]: active; positive. reevaluation of results: positive | mutagenic call (Test System: MOUSE LYMPHOMA, Strain/Indicator: L5178Y (TK+/TK-), Metabolic Activation: RAT, LIVER, S-9, AROCLOR 1254, Method: SUSPENSION/PLATE): active; positive. reevaluation of results: equivocal

Cc1cc(O)c2c(c1)C(=O)c1cccc(O)c1C2=O
mutagenic call (End Point: IN VITRO CHROMOSOMAL ABERRATIONS, Test System: CHO CELLS, Metabolic Activation: MALE WISTAR RAT, LIVER, S-9): inactive; negative; tested to limit of solubility | mutagenic call (End Point: IN VITRO CHROMOSOMAL ABERRATIONS, Test System: CHO CELLS, Metabolic Activation: NONE): inactive; negative; tested to limit of solubility | mutagenic call (Test System: AMES SALMONELLA TYPHIMURIUM, Strain/Indicator: TA98, Metabolic Activation: NONE, Method: PREINCUBATION): inactive; negative | mutagenic call [1]: inactive; negative | mutagenic call [2]: inactive; negative | mutagenic call (Test System: AMES SALMONELLA TYPHIMURIUM, Strain/Indicator: TA98, Metabolic Activation: RAT, LIVER, S-9, PCB, Method: PREINCUBATION): inactive; negative | mutagenic call (Test System: AMES SALMONELLA TYPHIMURIUM, Strain/Indicator: TA100, Metabolic Activation: NONE, Method: PREINCUBATION): inactive; negative | mutagenic call [3]: inactive; negative | mutagenic call [4]: inactive; negative | mutagenic call (Test System: AMES SALMONELLA TYPHIMURIUM, Strain/Indicator: TA100, Metabolic Activation: RAT, LIVER, S-9, PCB, Method: PREINCUBATION): inactive; negative | mutagenic call (Test System: AMES SALMONELLA TYPHIMURIUM, Strain/Indicator: TA102, Metabolic Activation: NONE, Method: PREINCUBATION): active; positive | mutagenic call (Test System: AMES SALMONELLA TYPHIMURIUM, Strain/Indicator: TA102, Metabolic Activation: RAT, LIVER, S-9, Method: PREINCUBATION): active; positive | mutagenic call (Test System: AMES SALMONELLA TYPHIMURIUM, Strain/Indicator: TA1535, Metabolic Activation: NONE, Method: STANDARD PLATE): inactive; negative | mutagenic call (Test System: AMES SALMONELLA TYPHIMURIUM, Strain/Indicator: TA1535, Metabolic Activation: RAT, LIVER, S-9, AROCLOR 1254, Method: STANDARD PLATE): inactive; negative | mutagenic call (Test System: AMES SALMONELLA TYPHIMURIUM, Strain/Indicator: TA1537, Metabolic Activation: RAT, LIVER, S-9, AROCLOR 1254, Method: STANDARD PLATE): active; positive | mutagenic call (Test System: AMES SALMONELLA TYPHIMURIUM, Strain/Indicator: TA1537, Metabolic Activation: RAT, LIVER, S-9, Method: PREINCUBATION): active; positive | mutagenic call (Test System: AMES SALMONELLA TYPHIMURIUM, Strain/Indicator: TA1538, Metabolic Activation: NONE, Method: STANDARD PLATE): inactive; negative | mutagenic call (Test System: AMES SALMONELLA TYPHIMURIUM, Strain/Indicator: TA1538, Metabolic Activation: RAT, LIVER, S-9, AROCLOR 1254, Method: STANDARD PLATE): inactive; negative
